From paper PMC4519322 (PLoS Pathogens, 2015)

Key:
[1] = test system: Y289H rWSN; type: cell-based, influenza A virus; settings: read-out: IC50 (μM) Y289H rWSM (H1N1)
[2] = test system: A/WSN/1933 (H1N1); type: cell-based, influenza A virus

Row | SMILES | IC50 [1] | sensitivity of RK424 3rd passage virus [2] | sensitivity of nucleozin 4th passage virus [2]
1 | Cc1onc(-c2ccccc2)c1C(=O)N1CCN(c2ccc([N+](=O)[O-])cc2Cl)CC1 [Nucleozin, nucleozin, reference compound] | > 100 µM | susceptible | exhibited resistance
2 | O=C(O)c1cc(-c2ccc(-c3ccccc3)cc2)nc2ccccc12 [RK424] | 0.3 ± 0.1 µM | susceptible | but not RK424
